Values joined by “and” are separate entries in the source; they are usually repeats but may differ in a detail not shown here. Equal values may be shown once.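 Five concentrations, 48 hours, 96-well plates. GI50 marks 50% less growth. TGI: concentration producing complete growth inhibition.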
What was measured:
Assay in all cases: NCI tumour cell line growth inhibition, 48 h
SK-MEL-5 melanoma = system: SK-MEL-5 melanoma
HCT-15 colon = system: HCT-15 colon
CAKI-1 renal = system: CAKI-1 renal
NCI-H226 lung = system: NCI-H226 lung
HOP-92 NSCLC = system: HOP-92 NSCLC
OVCAR-5 ovarian = system: OVCAR-5 ovarian
MCF7 breast = system: MCF7 breast
NCI-H460 lung = system: NCI-H460 lung

Row | SMILES | GI50 (SK-MEL-5 melanoma) | TGI (SK-MEL-5 melanoma) | GI50 (HCT-15 colon) | TGI (HCT-15 colon) | GI50 (CAKI-1 renal) | TGI (CAKI-1 renal) | GI50 (NCI-H226 lung) | TGI (NCI-H226 lung) | GI50 (HOP-92 NSCLC) | TGI (HOP-92 NSCLC) | GI50 (OVCAR-5 ovarian) | TGI (OVCAR-5 ovarian) | GI50 (MCF7 breast) | TGI (MCF7 breast) | GI50 (NCI-H460 lung) | TGI (NCI-H460 lung)
1 | Cc1c(C#N)cccc1[C@@H](C)Nc1nnc(C)c2cnc(N3CCOCC3)cc12 | 10100 nM | 21.9 µM | 31.4 µM | > 100 µM | 0.7 µM | > 100 µM | 23.2 µM | > 100 µM | 175 nM | 13.1 µM | 42.2 µM | > 100 µM | 21400 nM | 72.4 µM | 27700 nM | > 100 µM
2 | COc1cc(OC)cc(C2C3=C(COC3=O)Nc3cc(OC)ccc32)c1 (stereo not drawn) | < 10 nM | 0.0178 µM | < 0.01 µM | > 42.6 µM | < 0.01 µM | > 100 µM | < 0.01 µM | 0.0207 µM | – | – | < 0.0201 µM | > 100 µM | < 10 nM | 19.9 µM | < 10 nM | 0.495 µM
3 | CCCc1cc(=O)n2c(C(=O)Nc3ccc(F)cc3)c(C(=O)Nc3ccc(F)cc3)sc2n1 | > 160000 nM | > 160 µM | 89.7 µM | > 160 µM | 75.3 µM | > 160 µM | 1.71 µM | 16.3 µM | 5270 nM | 18.6 µM | > 160 µM | > 160 µM | 54800 nM | > 160 µM | 73400 nM | > 160 µM
4 | CC(C)OC(=S)Nc1ccc(Cl)c(/C=N/OC(C)(C)C)c1 | – | 31.8 µM | – | 32.4 µM | – | 32.8 µM | – | 34.2 µM | – | 25.5 µM | – | 30.8 µM | – | 51 µM | – | 33.1 µM
5 | CC/C(Cc1ccccc1)=C(\c1ccc(OCCN2CCCC2)cc1)c1ccc(OC(=O)NCc2ccccc2)cc1 | 1710 nM | 3.11 µM | 1.58 µM | 3.07 µM | 1.63 µM | 3.02 µM | 3.52 µM | 14.2 µM | 1580 nM | 3.19 µM | 1.93 µM | 4.65 µM | 99.4 nM | 2.16 µM | 1890 nM | 3.42 µM
6 | COc1ccc(-c2ccc(/C=N/n3c(COc4ccccc4Cl)nn(CN4CCOCC4)c3=S)o2)c([N+](=O)[O-])c1 | – | – | 28.2 µM | > 100 µM | 21.3 µM | 56.3 µM | – | – | 21600 nM | 52.6 µM | 55.3 µM | > 100 µM | 19400 nM | 47.4 µM | 19800 nM | 49 µM
7 | COc1cc(/C=C/c2ccc(O)c(OC)c2)cc(OC)c1 | – | 77.7 µM | – | 45.8 µM | – | > 100 µM | – | – | – | 49.7 µM | – | > 100 µM | – | > 100 µM | – | 52.5 µM
8 | C=C1C(O)C2CC(C)(CO)C(=O)C2=C(CC(C)C)C12CC2 (stereo not drawn) | 82800 nM | > 100 µM | 82.3 µM | > 100 µM | 69.6 µM | > 100 µM | > 100 µM | > 100 µM | 94600 nM | > 100 µM | > 100 µM | > 100 µM | 63900 nM | > 100 µM | 67000 nM | > 100 µM
9 | O=C(NCC(F)(F)F)Nc1cccc(-c2cnc3cc(-c4ccc(F)cc4)ccn23)c1 | 549 nM | 14 µM | 0.614 µM | > 74 µM | 1.05 µM | – | 3.99 µM | > 100 µM | 2150 nM | > 100 µM | 8.33 µM | > 86.3 µM | 586 nM | 18.5 µM | 491 nM | > 100 µM
10 | CCCCCC(O)C(O)CCC[C@H](O)[C@H]1CC[C@H]([C@H]2CC[C@H]([C@H](O)CCCCCCCCCCCCC3=C[C@H](C)OC3=O)O2)O1 (stereo partly drawn) | – | 3.82 µM and 3.07 µM | 5.48 µM | 40.6 µM | 15.3 µM | 36.5 µM | 5.25 µM | 35.9 µM | – | 61.7 µM | – | 35.4 µM | 3780 nM | 31.4 µM | 1690 nM | 31.7 µM
11 | CS(=O)(=O)c1ccc(Nc2nc(N[C@H]3CCCC[C@H]3N)nc3cc[nH]c(=O)c23)cc1 | 1530 nM | 3.25 µM | 26.7 µM | > 100 µM | 11.7 µM | 36.3 µM | 2.67 µM | 19 µM | 2040 nM | 23.6 µM | 2.52 µM | > 100 µM | 326 nM | 13.4 µM | 2620 nM | 11.5 µM
12 | N#CC1=C(N)Oc2c(ccc3ccccc23)C1c1cc(=O)oc2ccc(Cl)cc12 (stereo not drawn) | 484 nM | 14.4 µM | 0.471 µM | 15.8 µM | – | – | 26 µM | 81.6 µM | 556 nM | 42 µM | 4.1 µM | > 100 µM | 347 nM | 22.1 µM | 466 nM | 14 µM
13 | O=[N+]([O-])c1ccc(Cl)c(CNc2ncnc3c2ncn3C2CCCCO2)c1 (stereo not drawn) | – | 52.3 µM | – | > 100 µM | – | > 100 µM | – | 86.6 µM | – | > 100 µM | – | > 100 µM | – | 62 µM | – | 52.2 µM
14 | Cc1ccc(-c2nc(/C=N/Nc3cc(C)nc4ccc(Cl)cc34)c(C)o2)cc1 | 1760 nM | 3.15 µM | 0.549 µM | 2.08 µM | 1.74 µM | 3.19 µM | 1.84 µM | 3.72 µM | 1430 nM | 2.98 µM | 1.72 µM | 3.39 µM | 1630 nM | 3.2 µM | 1930 nM | 3.79 µM
15 | CN1Cc2ccccc2/C=C\c2ccccc21 | – | > 100 µM | – | > 100 µM | – | > 100 µM | – | > 100 µM | – | 98.7 µM | – | – | – | 67.9 µM | – | > 100 µM
16 | CNCCCNc1nc2ccccc2c2c(=O)c3cc(OC)ccc3sc12 | 1720 nM | 3.13 µM | 1.52 µM | 2.95 µM | 1.66 µM | 3.17 µM | 1.8 µM | 3.9 µM | 1350 nM | 5.67 µM | 1.67 µM | 3.08 µM | 1690 nM | 3.32 µM | 1670 nM | 3.13 µM
17 | CCCCCCSSC(=S)N(CC)CC | 14600 nM | 31.6 µM | 28.4 µM | > 100 µM | 16.3 µM | 36.1 µM | 35.4 µM | > 100 µM | 32400 nM | > 100 µM | 20.5 µM | 35.9 µM | 13900 nM | 30.8 µM | – | –
18 | CC(=O)N1CCN(CCNC(=O)n2cc(-c3ccncc3)c(-c3cc(O)cc(Cl)c3)n2)CC1 | 3660 nM | 16.9 µM | 4.25 µM | 22.2 µM | 13 µM | 38.1 µM | 16.7 µM | 40.5 µM | 5930 nM | 24.3 µM | 23.8 µM | 63.2 µM | 14700 nM | 32.9 µM | 10100 nM | 26.3 µM
19 | C1CCCCc2nc3c(nc2CCC1)c1nc2c(nc1c1nc4c(nc31)CCCCCCCC4)CCCCCCCC2 | – | – | – | > 100 µM | – | – | – | – | – | > 100 µM | – | > 100 µM | – | – | – | > 100 µM
20 | Clc1ccc(-c2c3ccc(=[N+]4CCCCC4)cc-3oc3cc(N4CCCCC4)ccc23)cc1 | 156 nM | 0.291 µM | – | – | – | – | – | – | – | – | 0.145 µM | 0.323 µM | – | – | – | –
21 | CN=C1C=CC(=C(c2ccc(N(C)C)cc2)c2ccc(N(C)C)cc2)C=C1 | 182 nM | 0.364 µM | 0.367 µM | 6.07 µM | 0.448 µM | 2.53 µM | – | – | 205 nM | 0.633 µM | 0.312 µM | 3.43 µM | 308 nM | 1.05 µM | 130 nM | 0.909 µM
22 | C#C[C@@]1(O)[C@@H](CO)O[C@@H](n2cc(I)c3c(N)ncnc32)[C@@H]1O | 209 nM | 3.3 µM | 0.137 µM | > 100 µM | – | – | 1.72 µM | > 100 µM | 73.6 nM | 2.22 µM | 0.933 µM | > 100 µM | < 11.7 nM | > 100 µM | 89.5 nM | 1.91 µM
23 | c1ccc(OCCC[P+](c2ccccc2)(c2ccccc2)c2ccccc2)cc1 | 438 nM | 1.74 µM | 22.2 µM | > 100 µM | 10.1 µM | 27.9 µM | 2.3 µM | 30.5 µM | – | – | 4.09 µM | > 100 µM | 677 nM | 10.3 µM | 2790 nM | 13.5 µM
24 | COC(=O)c1c(-c2cccs2)oc(-c2cccs2)c1C(=O)OC | – | – | 27.5 µM | > 100 µM | 26.7 µM | 69.3 µM | 38.2 µM | 98.3 µM | 31900 nM | > 100 µM | > 95 µM | > 100 µM | 13200 nM | > 100 µM | 33100 nM | > 100 µM
25 | CC(=O)OC12C=C(C)C(C(C)C1)C1C(=O)N(CCN3CCCCC3)C(=O)C12 (stereo not drawn) | > 50000 nM | > 50 µM | > 50 µM | > 50 µM | > 50 µM | > 50 µM | > 50 µM | > 50 µM | > 50000 nM | > 50 µM | > 50 µM | > 50 µM | – | – | – | –
26 | CCOC(=O)C(Cc1ccc(N(CCCl)CCCl)cc1)NC(=O)C(Cc1ccccc1)NC=O (stereo not drawn) | – | 0.355 µM | – | 0.602 µM | – | 0.264 µM | – | – | – | 0.419 µM | – | 0.548 µM | – | 0.502 µM | – | 0.604 µM
